From publication PMC10204553, “Identification of the Binding Epitope of an Anti-Mouse CCR6 Monoclonal Antibody (C6Mab-13) Using 1× Alanine Scanning” (Antibodies, 2023)

Legend:
[1] = test system: C6Mab-13; assay: ELISA of C6Mab-13 with immobilized alanine-substituted mCCR6 peptides; type: binding, rat; conditions: for binding of C6Mab-13 in ELISA (in words): ELISA with alanine-substituted peptides, Figure 1A; for C6Mab-13 Reactivity: ELISA, peptide immobilized at 10 µg/mL, 30 min 37 °C, C6Mab-13 10 µg/mL, OD at 655 nm
Description: Synthesized mCCR6 peptides were immobilized on Nunc Maxisorp 96-well immunoplates (Thermo Fisher Scientific Inc., Waltham, MA, USA) at 10 µg/mL for 30 min at 37 °C. After being washed with phosphate-buffered saline (PBS) containing 0.05% Tween20 (PBST; Nacalai Tesque, Inc., Kyoto, Japan), the wells were blocked with 1% bovine serum albumin (BSA)-containing PBST for 30 min at 37 °C. The plates were incubated with 10 µg/mL of C6Mab-13 for 30 min at 37 °C followed by peroxidase-conjugated anti-rat immunoglobulins (1:20,000 diluted; Sigma-Aldrich Corp.) for 30 min at 37 °C. Enzymatic reactions were conducted at room temperature using the ELISA POD Substrate TMB Kit (Nacalai Tesque, Inc.). Optical density was measured at 655 nm using an iMark microplate reader (Bio-Rad Laboratories, Inc., Berkeley, CA, USA).
Figure 1 Determination of the C6Mab-13 epitope by ELISA using alanine-substituted peptides of mCCR6. (A) Synthesized peptides of mCCR6 (10 µg/mL) were immobilized on immunoplates for 30 min at 37 °C. The plates were incubated with 10 µg/mL of C6Mab-13, followed by treatment with peroxidase-conjugated anti-rat immunoglobulins. Optical density was measured at 655 nm (OD655) using a microplate reader. (B) The schematic illustration of mCCR6 and the C6Mab-13 epitope. The C6Mab-13 epitope of mCCR6 comprises Asp11 from ELISA experiments.

[2] = test system: C6Mab-13; assay: Surface plasmon resonance (Biacore X100), C6Mab-13 immobilized on CM5 chip; type: binding, rat; conditions: KD could not be calculated
Description: The dissociation constants (KD) between C6Mab-13 and the epitope region peptides were measured using SPR. C6Mab-13 was immobilized on the CM5 sensor chip according to the manufacturer’s protocol (Cytiva, Marlborough, MA, USA). In summary, C6Mab-13 was diluted to 10 μg/mL by an acetate buffer (pH 4.0; Cytiva) and immobilized using an amine-coupling reaction. The surface of flow cell 2 of the CM5 sensor chip was treated with 1-ethyl-3-(3-dimethylaminopropyl)-carbodiimide and N-hydroxysuccinimide (NHS), followed by an injection of C6Mab-13. The unreacted NHS-ester was blocked with ethanolamine after C6Mab-13 immobilization. The KD between C6Mab-13 and mCCR6 peptides (50, 25, 12.5, 6.25, and 3.13 µM) were measured using Biacore X100 (Cytiva) at 25 °C. The buffer was filtrated with PBS containing 0.05% (v/v) Tween 20 and 0.24% (v/v) dimethyl sulfoxide (FUJIFILM Wako Pure Chemical Corporation, Osaka, Japan). The single-cycle kinetics method was used to measure the binding signals. The data were analyzed using 1:1 binding kinetics to determine the association rate constant (ka), dissociation rate constant (kd), and KD using BIAevaluation software (Cytiva).

binding of C6Mab-13 in ELISA (in words) [1] | binding to C6Mab-13 in SPR analysis (in words) [2] | Sequence | C6Mab-13 Reactivity [1]
bound | lack of binding | MNSTESYFATDDYDNTEYYS [G9A, 1× alanine-substituted mCCR6 1–20 peptide] | +++ (OD655 ≧ 0.3)
did not react | lack of binding | MNSTESYFGTADYDNTEYYS [D11A, 1× alanine-substituted mCCR6 1–20 peptide] | - (OD655 < 0.1)
